target: Glutamate NMDA receptor; experiment: Binding affinity towards NMDA receptor was determined in rat whole brain membrane using NMDA-sensitive [3H]Glu as radioligand; assay type: cell membranes

Row | Compound | Ki [µM]
1 | O=c1[nH]c2cc([N+](=O)[O-])c(-n3ccnc3)cc2n(O)c1=O | 12

target: Glutamate receptor ionotropic, NMDA 1 (Rattus norvegicus, UniProt P35439); experiment: Binding affinity towards glycine binding site on NMDA receptor was determined in rat whole brain membrane using strychnine-insensitive [3H]Gly as radioligand; assay type: cell membranes

Row | Compound | Ki [µM]
2 | O=c1[nH]c2cc([N+](=O)[O-])c(-n3ccnc3)cc2n(O)c1=O | 4.2
3 | O=c1[nH]c2cc(-n3ccnc3)c([N+](=O)[O-])cc2[nH]c1=O [YM-90K] | 37

target: Glutamate receptor ionotropic, AMPA (Rattus norvegicus, UniProt P19490+P19491+P19492+P19493)
Description: Binding affinity towards Ionotropic glutamate receptor AMPA was determined in rat whole brain membrane using [3H]AMPA as radioligand

Row | Ki [µM] | Compound
4 | 0.44 | O=c1[nH]c2cc(-n3ccnc3)c([N+](=O)[O-])cc2n(O)c1=O
5 | 0.23 | CC(C)CCn1c(=O)c(=O)[nH]c2cc([N+](=O)[O-])c(-n3ccnc3)cc21
6 | 0.14 | CCCn1c(=O)c(=O)[nH]c2cc([N+](=O)[O-])c(-n3ccnc3)cc21
7 | 0.38 | COn1c(=O)c(=O)[nH]c2cc([N+](=O)[O-])c(-n3ccnc3)cc21
8 | 0.84 | CN(C)CCn1c(=O)c(=O)[nH]c2cc([N+](=O)[O-])c(-n3ccnc3)cc21
9 | 0.33 | Cn1c(=O)c(=O)[nH]c2cc([N+](=O)[O-])c(-n3ccnc3)cc21
10 | 0.05 | Cc1cn(-c2cc3c(cc2[N+](=O)[O-])[nH]c(=O)c(=O)n3O)cn1
11 | 0.19 | CCn1c(=O)c(=O)[nH]c2cc([N+](=O)[O-])c(-n3ccnc3)cc21
12 | 0.42 | O=c1[nH]c2cc([N+](=O)[O-])c(-n3ccnc3)cc2n(CCO)c1=O
13 | 8.9 | CCCCCCCCCCn1c(=O)c(=O)[nH]c2cc([N+](=O)[O-])c(-n3ccnc3)cc21
14 | 4.5 | CCCn1c(=O)c(=O)[nH]c2cc(-n3ccnc3)c([N+](=O)[O-])cc21
15 | 0.3 | CCOn1c(=O)c(=O)[nH]c2cc([N+](=O)[O-])c(-n3ccnc3)cc21

Row | Compound | Ki [µM]
16 | O=c1[nH]c2cc([N+](=O)[O-])c(-n3ccnc3)cc2n(O)c1=O | 0.021
17 | O=c1[nH]c2cc([N+](=O)[O-])c(-n3ccnc3)cc2n(CC2CCCCC2)c1=O | 0.79
18 | O=c1[nH]c2cc([N+](=O)[O-])c(-n3ccnc3)cc2n(C2CN3CCC2CC3)c1=O (configuration not stated) | 1
19 | O=c1[nH]c2cc([N+](=O)[O-])c(-n3ccnc3)cc2n(C2CCCCC2)c1=O | 0.11
20 | O=c1[nH]c2cc([N+](=O)[O-])c(-n3cncn3)cc2n(O)c1=O | 0.18
21 | O=c1[nH]c2cc([N+](=O)[O-])c(-n3ccnc3)cc2n(C2CCNC2)c1=O (configuration not stated) | 0.55

target: Glutamate receptor ionotropic, kainate; experiment: Binding affinity towards Ionotropic glutamate receptor kainate was determined in rat cortical membrane using [3H]KA as radioligand; assay type: cell membranes

Row | Compound | Ki [µM]
22 | O=c1[nH]c2cc([N+](=O)[O-])c(-n3ccnc3)cc2n(O)c1=O | 0.63

Source: ChEMBL document CHEMBL1129427, “Novel AMPA receptor antagonists: synthesis and structure-activity relationships of 1-hydroxy-7-(1H-imidazol-1-yl)-6-nitro-2,3(1H,4H)- quinoxalinedione and related compounds” (J Med Chem, 1996)
